Values of other authors, collected in patent EP3623369A1, “NOVEL MORPHOLINYL AMINE COMPOUNDS FOR THE TREATMENT OF AUTOIMMUNE DISEASE” (F. Hoffmann-La Roche AG, priority 2018, dated 2020).

Biological target: T1, hTLR9 (Homo sapiens, UniProt Q9NR96)
T1 sequence (Q9NR96 26-1032): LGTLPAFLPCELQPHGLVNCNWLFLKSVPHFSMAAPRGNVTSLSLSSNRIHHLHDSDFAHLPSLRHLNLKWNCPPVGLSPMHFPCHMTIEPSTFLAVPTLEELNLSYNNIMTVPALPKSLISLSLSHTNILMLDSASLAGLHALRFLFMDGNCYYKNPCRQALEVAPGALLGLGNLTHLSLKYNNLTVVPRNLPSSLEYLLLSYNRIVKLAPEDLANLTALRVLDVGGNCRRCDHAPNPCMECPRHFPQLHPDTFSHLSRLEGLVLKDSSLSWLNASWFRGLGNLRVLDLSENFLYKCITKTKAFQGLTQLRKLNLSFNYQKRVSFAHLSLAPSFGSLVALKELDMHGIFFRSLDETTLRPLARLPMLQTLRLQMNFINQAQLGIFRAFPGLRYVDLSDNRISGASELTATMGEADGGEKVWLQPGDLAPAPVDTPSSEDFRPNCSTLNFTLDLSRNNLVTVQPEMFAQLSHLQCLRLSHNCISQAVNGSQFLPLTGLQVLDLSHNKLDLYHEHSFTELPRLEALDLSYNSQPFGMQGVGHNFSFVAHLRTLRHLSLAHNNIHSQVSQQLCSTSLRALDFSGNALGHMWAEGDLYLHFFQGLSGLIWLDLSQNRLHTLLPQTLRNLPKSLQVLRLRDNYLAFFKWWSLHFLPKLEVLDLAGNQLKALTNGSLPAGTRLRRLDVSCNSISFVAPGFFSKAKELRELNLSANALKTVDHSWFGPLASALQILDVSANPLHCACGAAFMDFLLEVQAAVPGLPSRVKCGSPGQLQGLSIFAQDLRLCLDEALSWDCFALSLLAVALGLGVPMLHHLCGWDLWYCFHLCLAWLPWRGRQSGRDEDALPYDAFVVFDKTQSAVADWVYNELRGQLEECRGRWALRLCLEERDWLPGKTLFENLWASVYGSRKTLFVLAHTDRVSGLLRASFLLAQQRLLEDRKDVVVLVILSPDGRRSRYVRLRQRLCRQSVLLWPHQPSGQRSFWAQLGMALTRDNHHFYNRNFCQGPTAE
Parameters: host or cells: HEK
Conditions: data disclosed in US20150105370; read-out: HEK/hTLR9 IC50; cited from earlier work

Q: Which IC50 does the source give for `C[C@@H]1CN(c2ccc(C#N)c3ncccc23)C[C@H](CNCc2ccccc2)O1` [ER-886509, reference compound] here?
A: Its IC50 is 3.94 µM.
